Data on 5 compounds can be found in patent US4241069A, “3-Methylene flavanones and 3-methylene chromanones” (Miles Laboratories, Inc., priority 1979, dated 1980).

Molecules are shown by their SMILES. Converted amounts (≈) assume the structure as drawn.

Assay in all cases: MIC, agar incorporation method
In test [1] the test system is Pseudomonas aeruginosa ATCC 14502. The test is classed as cell-based. To be noted: ATCC14502, 32° C., 24 hours, read-out: Minimal Inhibitory Concentration. The procedure: (§1) The compounds of the present invention were tested for their ability to inhibit the growth of microorganisms by in vitro tests. Generally the in vitro tests involve growing representative microorganisms under conditions favorable to such growth and measuring the effectiveness of one or more compounds in inhibiting or destroying the growth of the microorganisms. The microorganisms used include representative bacteria, fungi and yeasts.
(§2) A representative selection of the test microorganisms were cultured in a nutrient broth, such as, for example, Eugon, commercially available from Difco Laboratories, Detroit, Michigan. Bacteria and Candida species were cultured for 24 hours at 32°-37° C. and fungi were cultured for approximately one week at 32° C. Inocula were prepared by suspending the growth or spores from a slant culture in sufficient sterile normal (0.9 percent) saline or Eugon broth, to yield cell or spore concentrations of 1,000,000 cells per milliliter. Anaerobic bacteria were cultured for 48-72 hours at 32°-37° C. in a thioglycollate containing medium, for example, Fluid Thioglycollate medium or NIH thioglycollate broth, commercially available from Difco Laboratories.
(§3) The compounds of the present invention were tested for activity against bacteria, yeasts and fungi by the agar incorporation method described below. MA 1347, 3-(dimethylaminomethyl)flavanone (disclosed in U.S. Pat. No. 3,753,985) was used as a comparative standard along with controls for each solvent system used.
(§4) A series of agar plates containing two-fold dilutions of each compound to be tested, ranging in concentration from 100 to 3.1 mcg/ml of agar medium was prepared. Aliquots of each concentration (100, 50, 25, 12.5, 6.2, and 3.1) prepared in N,N-dimethylformamide or 50 percent aqueous DMF were added to liquid Eugon agar at 48° C. (one part test solution to 100 parts agar). In some cases, tests with further dilutions to 0.125 mcg/ml were conducted. The agar medium, containing the 3-methylene flavanone or chromanone compound to be tested, was then dispensed into petri dishes and allowed to solidify. The solidified plates were kept overnight at room temperatures to dry the surface of the agar.
(§5) The agar plates were then inoculated with a drop of the standardized cell or spore suspension. Inoculated plates were incubated at 32° C. The inhibition end-point or minimum inhibitory concentration (MIC) shown in Table D represent the lowest concentration of test compound which inhibited the growth of the microorganism. Visual determination of growth inhibition was used. Bacteria and yeast end-points were determined after 24 hours incubation; molds, dermatophytes and anaerobes after 48-72 hours incubation. MIC values shown as ranges represent the extremes found in repeat assays. Virtually all such values were written plus or minus one dilution, the accepted variation of a two-fold dilution assay.

Test [2] concerns Candida albicans ATCC 10231. The test is classed as cell-based. The following applies: ATCC10231, C. albicans ATCC 10231, 32° C., 24 hours, read-out: Minimal Inhibitory Concentration. The method, then: as §1, §2, §3, §4, §5
The test system of test [3] is Microsporum gypseum ATCC 14683. The test is classed as cell-based. The following applies: Nannizzia gypsea, ATCC14683, 32° C., 48-72 hours; read-out: Minimal Inhibitory Concentration. The method, then: as §1, §2, §3, §4, §5
Test [4] has as its system Staphylococcus aureus ATCC 6538. The test is classed as cell-based. To be noted: Staphylococcus aureus, ATCC6538; S. aureus ATCC 6538; 32° C., 24 hours; read-out: Minimal Inhibitory Concentration. The procedure:
as §1, §2, §3, §4, §5

The test system of the next test is C. albicans NRRL Y-477. The test is classed as cell-based. To be noted: Candida albicans, NRRLY477, 32° C., 24 hours, read-out: Minimal Inhibitory Concentration. The method, then: as §1, §2, §3, §4, §5
Test [5] has as its system Streptococcus faecalis ATCC 10541. The test is classed as cell-based. To be noted: Enterococcus faecalis, ATCC10541; 32° C., 24 hours; read-out: Minimal Inhibitory Concentration. The method, then: as §1, §2, §3, §4, §5
The subject of a further test is C. krusei VM 29B. The test is classed as cell-based. The following applies: Pichia kudriavzevii, VM29B; 32° C., 24 hours; read-out: Minimal Inhibitory Concentration. The procedure: as §1, §2, §3, §4, §5
Another test deals with T. mentagrophytes CDC. The test is classed as cell-based. To be noted: Trichophyton mentagrophytes, 32° C., 48-72 hours, read-out: Minimal Inhibitory Concentration. The method, then: as §1, §2, §3, §4, §5
Test [6] concerns Escherichia coli ATCC 8739. The test is classed as cell-based. The following applies: ATCC8739, 32° C., 24 hours, read-out: Minimal Inhibitory Concentration. The method, then:
as §1, §2, §3, §4, §5

In a further test the test system is C. guillermondii VM 42. The test is classed as cell-based. To be noted: 32° C., 24 hours; read-out: Minimal Inhibitory Concentration. The method, then: as §1, §2, §3, §4, §5
The subject of the next test is T. rubrum ATCC 10218. The test is classed as cell-based. The following applies: Trichophyton rubrum, ATCC10218; 32° C., 48-72 hours; read-out: Minimal Inhibitory Concentration. The method, then:
as §1, §2, §3, §4, §5

Test [7] deals with Aspergillus niger ATCC 16404. The test is classed as cell-based. To be noted: ATCC16404, 32° C., 48-72 hours, read-out: Minimal Inhibitory Concentration. The method, then: as §1, §2, §3, §4, §5
Test [8] relates to Trichophyton mentagrophytes ATCC 4807. The test is classed as cell-based. The following applies: ATCC4807, 32° C., 48-72 hours, read-out: Minimal Inhibitory Concentration. The method, then: as §1, §2, §3, §4, §5
Another test relates to T. mentagrophytes TM-2. The test is classed as cell-based. The following applies: Trichophyton mentagrophytes, TM2, 32° C., 48-72 hours, read-out: Minimal Inhibitory Concentration. The procedure:
as §1, §2, §3, §4, §5

The next test relates to C. tropicalis NRRL Y1410. The test is classed as cell-based. To be noted: Candida tropicalis, NRRLY1410; 32° C., 24 hours; read-out: Minimal Inhibitory Concentration. The procedure: as §1, §2, §3, §4, §5
In another test the test system is A. fumigatus NRRL 165. The test is classed as cell-based. The following applies: Aspergillus fumigatus, NRRL165, 32° C., 48-72 hours, read-out: Minimal Inhibitory Concentration. The procedure:
as §1, §2, §3, §4, §5

The next test has as its system S. aureus NRRL B2747. The test is classed as cell-based, Staphylococcus aureus. To be noted: Staphylococcus aureus, NRRLB2747, 32° C., 24 hours, read-out: Minimal Inhibitory Concentration. The method, then:
as §1, §2, §3, §4, §5

`C=C1C(=O)c2ccccc2OC1c1ccc(N(C)C)cc1` (stereo not shown) [Ex. 11, 4'-dimethylamino-3-methylene flavanone]: the MIC in [1] was over 100 µg/mL; in test [2], over 100 µg/mL; in test [3], 25 µg/mL (≈ 89.5 µM); in test [4], 50 µg/mL (≈ 179 µM); in the test on C. albicans NRRL Y-477, over 100 µg/mL; in test [5] it was over 100 µg/mL. Moreover, the MIC is 100 µg/mL (≈ 358 µM) in the test with C. krusei VM 29B; 25 µg/mL (≈ 89.5 µM) in the test with T. mentagrophytes CDC; over 100 µg/mL in [6]; over 100 µg/mL with C. guillermondii VM 42; 12.5 µg/mL (≈ 44.7 µM) in the test with T. rubrum ATCC 10218; over 100 µg/mL in [7]. The MIC in test [8] is 25 µg/mL (≈ 89.5 µM); in the test with T. mentagrophytes TM-2 it was 25 µg/mL (≈ 89.5 µM); with C. tropicalis NRRL Y1410, over 100 µg/mL; with A. fumigatus NRRL 165 it was over 100 µg/mL; in the test on S. aureus NRRL B2747 it was 50 µg/mL (≈ 179 µM).
As for `C=C1C(=O)c2ccccc2OC1c1ccc(C#N)cc1` (stereo not shown) [Ex. 16, 4'-cyano-3-methylene flavanone], the MIC in [1] was over 100 µg/mL; in test [2], 50 µg/mL (≈ 191 µM); in [3], 12.5 µg/mL (≈ 47.8 µM); in [4], 12.5 µg/mL (≈ 47.8 µM); with C. albicans NRRL Y-477, 50 µg/mL (≈ 191 µM); in test [5], 100 µg/mL (≈ 383 µM). In addition, the MIC with C. krusei VM 29B is 50 µg/mL (≈ 191 µM); in the test on T. mentagrophytes CDC, 25 µg/mL (≈ 95.7 µM); in test [6] it was over 100 µg/mL; with C. guillermondii VM 42 it was 100 µg/mL (≈ 383 µM); with T. rubrum ATCC 10218, 6.2 µg/mL (≈ 23.7 µM); in test [7], 50 µg/mL (≈ 191 µM). Besides, the MIC came out at 12.5 µg/mL (≈ 47.8 µM) in [8]; 12.5 µg/mL (≈ 47.8 µM) in the test on T. mentagrophytes TM-2; 50 µg/mL (≈ 191 µM) in the test with C. tropicalis NRRL Y1410; 100 µg/mL (≈ 383 µM) in the test on A. fumigatus NRRL 165; 12.5 µg/mL (≈ 47.8 µM) in the test on S. aureus NRRL B2747.
Take `C=C1C(=O)c2ccccc2OC1c1cccc2ccccc12` (stereo not shown) [Ex. 23, 3-methylene-2-(1-naphthyl) chromanone]: the MIC in test [1] was over 100 µg/mL; in [2], over 100 µg/mL; in [3], 6.2 µg/mL (≈ 21.7 µM); in test [4] it was at most 3.1 µg/mL; in the test on C. albicans NRRL Y-477, 100 µg/mL (≈ 349 µM); in test [5], 50 µg/mL (≈ 175 µM). For the same compound, the MIC in the test on C. krusei VM 29B was 50 µg/mL (≈ 175 µM); in the test on T. mentagrophytes CDC it was 12.5 µg/mL (≈ 43.7 µM); in test [6], over 100 µg/mL; in the test on C. guillermondii VM 42 it was over 100 µg/mL; with T. rubrum ATCC 10218, 6.2 µg/mL (≈ 21.7 µM); in [7], over 100 µg/mL. The MIC in test [8] was 6.2 µg/mL (≈ 21.7 µM); in the test on T. mentagrophytes TM-2, 12.5 µg/mL (≈ 43.7 µM); in the test on C. tropicalis NRRL Y1410 it was over 100 µg/mL; with A. fumigatus NRRL 165, over 100 µg/mL; in the test with S. aureus NRRL B2747 it was 6.2 µg/mL (≈ 21.7 µM).
`C=C1C(=O)c2ccccc2OC1c1cccc([N+](=O)[O-])c1` (stereo not shown) [compound 9, 3'-nitro-3-methylene flavanone]: the MIC was over 100 µg/mL in test [1]; 50 µg/mL (≈ 178 µM) in test [2]; 6.2 µg/mL (≈ 22 µM) in test [3]; 6.2 µg/mL (≈ 22 µM) in [4]; 50 µg/mL (≈ 178 µM) with C. albicans NRRL Y-477; 50 µg/mL (≈ 178 µM) in [5]. Also, the MIC with C. krusei VM 29B was 50 µg/mL (≈ 178 µM); with T. mentagrophytes CDC it was 12.5 µg/mL (≈ 44.4 µM); in test [6], over 100 µg/mL; with C. guillermondii VM 42, 100 µg/mL (≈ 356 µM); in the test on T. rubrum ATCC 10218, 6.2 µg/mL (≈ 22 µM); in test [7], 50 µg/mL (≈ 178 µM). The MIC in test [8] was determined as 12.5 µg/mL (≈ 44.4 µM); with T. mentagrophytes TM-2 it was 6.2 µg/mL (≈ 22 µM); with C. tropicalis NRRL Y1410, 50 µg/mL (≈ 178 µM); in the test on A. fumigatus NRRL 165 it was 100 µg/mL (≈ 356 µM); in the test on S. aureus NRRL B2747 it was 6.2 µg/mL (≈ 22 µM).
With `C=C1C(=O)c2ccccc2OC1c1ccc2ccccc2c1` (stereo not shown) [compound 24, 3-methylene-2-(2-naphthyl) chromanone], the MIC in test [1] was over 100 µg/mL; in test [2] it was over 100 µg/mL; in [3], 12.5 µg/mL (≈ 43.7 µM); in test [4] it was at most 3.1 µg/mL; in the test on C. albicans NRRL Y-477, 100 µg/mL (≈ 349 µM); in test [5] it was 50 µg/mL (≈ 175 µM). Also, the MIC was 25 µg/mL (≈ 87.3 µM) with C. krusei VM 29B; 25 µg/mL (≈ 87.3 µM) in the test with T. mentagrophytes CDC; over 100 µg/mL in [6]; over 100 µg/mL in the test on C. guillermondii VM 42; 6.2 µg/mL (≈ 21.7 µM) in the test on T. rubrum ATCC 10218; over 100 µg/mL in test [7]. The MIC in [8] is 12.5 µg/mL (≈ 43.7 µM); with T. mentagrophytes TM-2, 12.5 µg/mL (≈ 43.7 µM); with C. tropicalis NRRL Y1410 it was over 100 µg/mL; with A. fumigatus NRRL 165, over 100 µg/mL; in the test on S. aureus NRRL B2747, 6.2 µg/mL (≈ 21.7 µM).
